Patent US6984649B1, “Pyridine derivatives” (Bayer Aktiengesellschaft, priority 2000, dated 2006)
Counter-ions that a name gives are not always drawn.

test system: A549 human lung epithelium cell line; assay: RANTES production in response to TNF-α from A549 cells; type: cell-based; settings: Homo sapiens, A549, A549 cells, 100 ng/ml TNF-α, read-out: Cellular activity grade (A549) (Cellular IC50)
Summary of the method: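 RANTES released into supernatant was measured by DELFIA-type sandwich immunoassay, Eu-labelled detection antibody, 340 nm excitation/615 nm emission, recombinant RANTES standard. Beforehand, cells seeded at 4×10^4/well received test compound (1% DMSO) for 1 h at 37 °C, followed by 24 h TNF-α (100 ng/ml) stimulation.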

Row | SMILES | IC50 [µM]
1 | CC1OC(=O)Nc2nc(-c3ccccc3O)cc(C3CCCNC3)c21 (stereo not drawn) [Example 18-3, hydrochloride] | 1 to 10
2 | NC(Cc1ccccc1)c1cc(-c2ccccc2O)nc2c1COC(=O)N2 (stereo not drawn) [Example 18-4/18-5, 5-(1-Amino-2-phenyl-ethyl)-7-(2-hydroxy-phenyl)-1,4-dihydro-pyrido[2,3-d][1,3]oxazin-2-one hydrochloride] | 1 to 10
3 | Nc1nc(-c2c(O)cccc2OCc2ccccc2)cc2c1CN1CCCC2C1 (stereo not drawn) [Example 20-1, 2-(6-amino-5,9-diazatricyclo[7.3.1.02,7]trideca-2,4,6-trien-4-yl)-3-(benzyloxy)phenol hydrochloride] | > 10
4 | Nc1nc(-c2ccccc2O)cc2c1CN[C@@H]2Cc1ccccc1 [Example 20-2, 2-[(1R)-4-amino-1-benzyl-2,3-dihydro-1H-pyrrolo[3,4-d]pyridin-6-yl]phenol hydrochloride] | 1 to 10
5 | Nc1nc(-c2c(O)cccc2OCC2CC2)cc(C2CCCNC2)c1CSc1ccccc1 (stereo not drawn) [Example 21-1, 2-[6-amino-5-[(phenylsulfanyl)methyl]-4-(3-piperidinyl)-2-pyridinyl]-3-(cyclopropylmethoxy)phenol hydrochloride] | 1 to 10
6 | O=C1NCc2c(C3CCCNC3)cc(-c3ccccc3O)nc2N1 (stereo not drawn) [Example 22-1, 7-(2-hydroxyphenyl)-5-(3-piperidinyl)-3,4-dihydropyrido[2,3-d]pyrimidin-2(1H)-one hydrochloride] | 1 to 10
7 | O=S1(=O)NCc2c(C3CCCNC3)cc(-c3ccccc3O)nc2N1 (stereo not drawn) [Example 22-5, 2-[2,2-dioxido-5-(3-piperidinyl)-3,4-dihydro-1H-pyrido[2,3-c][1,2,6]thiadiazin-7-yl]phenol hydrochloride] | 1 to 10
8 | O=C(Nc1cc2c(C3CCCNC3)cc(-c3c(O)cccc3OCC3CC3)nc2[nH]c1=O)c1ccccc1 (stereo not drawn) [Example 29-2, N-[7-[2-(cyclopropylmethoxy)-6-hydroxyphenyl]-2-oxo-5-(3-piperidinyl)-1,2-dihydro-1,8-naphthyridin-3-yl]benzamide hydrochloride] | 1 to 10
9 | O=C(O)c1cc2c(C3CCCNC3)cc(-c3c(O)cccc3OCC3CC3)nc2[nH]c1=O (stereo not drawn) [Example 30-1, 7-(2-cyclopropylmethoxy-6-hydroxy-phenyl)-2-oxo-5-piperidin-3-yl-1,2-dihydro[1,8]naphthyridine-3-carboxylic acid hydrochloride] | 1 to 10
10 | CS(=O)(=O)NC(=O)c1cc2c(C3CCCNC3)cc(-c3c(O)cccc3OCC3CC3)nc2[nH]c1=O (stereo not drawn) [Example 31-2, N-{[7-[2-(cyclopropylmethoxy)-6-hydroxyphenyl]-2-oxo-5-(3-piperidinyl)-1,2-dihydro-1,8-naphthyridin-3-yl]carbonyl}methanesulfonamide hydrochloride] | 1 to 10
11 | Nc1ncnc2nc(-c3c(O)cccc3OCC3CC3)cc(C3CCCNC3)c12 (stereo not drawn) [Example 32-1, 2-[4-amino-5-(3-piperidinyl)pyrido[2,3-d]pyrimidin-7-yl]-3-(cyclopropylmethoxy)phenol hydrochloride] | 1 to 10
12 | N#Cc1ccc(-c2ccccc2O)nc1N [Example 33-1, 2-amino-6-(2-hydroxyphenyl)nicotinonitrile] | 1 to 10
13 | N#Cc1c(N2CCOCC2)cc(-c2ccccc2O)nc1N [Example 34-1, 2-amino-6-(2-hydroxyphenyl)-4-(4-morpholinyl)nicotinonitrile] | > 10
14 | N#Cc1c(N2CCC(C(N)=O)CC2)cc(-c2ccccc2O)nc1N [Example 34-2, 1-[2-amino-3-cyano-6-(2-hydroxyphenyl)-4-pyridinyl]-4-piperidinecarboxamide] | > 10
15 | N#Cc1c(N2CCCC(N)C2)cc(-c2ccccc2O)nc1N (stereo not drawn) [Example 34-3, 2-amino-4-(3-amino-1-piperidinyl)-6-(2-hydroxyphenyl)nicotinonitrile hydrochloride] | 1 to 10
16 | NCCNc1cc(-c2c(O)cccc2OCC2CC2)nc2c1COC(=O)N2 [Example 35-1, 5-[(2-aminoethyl)amino]-7-[2-(cyclopropylmethoxy)-6-hydroxyphenyl]-1,4-dihydro-2H-pyrido[2,3-d][1,3]oxazin-2-one hydrochloride] | < 1

Continued, values first:

Row | IC50 [µM] | SMILES
17 | < 1 | Oc1cccc(OCC2CC2)c1-c1cc(C2CCCNC2)c2c(n1)NCOC2 (stereo not drawn) [Example 17-1, 3-(cyclopropylmethoxy)-2-[5-(3-piperidinyl)-1,4-dihydro-2H-pyrido[2,3-d][1,3]oxazin-7-yl]-phenol hydrochloride]
18 | < 1 | O=C1Nc2nc(-c3ccccc3O)cc(C3CCCNC3)c2CO1 (stereo not drawn) [Example 18-2, 7-(2-hydroxyphenyl)-5-(3-piperidinyl)-1,4-dihydro-2H-pyrido[2,3-d][1,3]oxazin-2-one hydrochloride]
19 | < 1 | O=C1Nc2nc(-c3ccccc3O)cc(C3=CCCNC3)c2CO1 [Example 18-6]
20 | < 1 | Nc1nc(-c2c(O)cccc2OCC2CC2)cc(C2CCNCC2)c1Cn1ccnc1 [Example 21-2, 2-[6-amino-5-(1H-imidazol-1-ylmethyl)-4-(4-piperidinyl)-2-pyridinyl]-3-(cyclopropylmethoxy)phenol hydrochloride]
21 | < 1 | Nc1nc(-c2c(O)cccc2OCC2CC2)cc(C2CCNCC2)c1COc1ccccc1 [Example 21-3, 2-[6-amino-5-(phenoxymethyl)-4-(4-piperidinyl)-2-pyridinyl]-3-(cyclopropylmethoxy)phenol hydrochloride]
22 | < 1 | Nc1nc(-c2c(O)cccc2OCC2CC2)cc(C2CCNCC2)c1CON1C(=O)CCC1=O [Example 21-4, 1-{[2-amino-6-[2-(cyclopropylmethoxy)-6-hydroxyphenyl]-4-(4-piperidinyl)-3-pyridinyl]methoxy}-2,5-pyrrolidinedione hydrochloride]
23 | < 1 | O=C1NCc2c(C3CCCNC3)cc(-c3c(O)cccc3OCC3CC3)nc2N1 (stereo not drawn) [Example 22-2, 7-[2-(cyclopropylmethoxy)-6-hydroxyphenyl]-5-(3-piperidinyl)-3,4-dihydro-1H-pyrido[2,3-d]-pyrimidin-2-one hydrochloride]
24 | < 1 | O=C1NCc2c(C3CCNCC3)cc(-c3c(O)cccc3OCC3CC3)nc2N1 [Example 22-3, 7-[2-(cyclopropylmethoxy)-6-hydroxyphenyl]-5-(4-piperidinyl)-3,4-dihydro-1H-pyrido[2,3-d]pyrimidin-2-one hydrochloride]
25 | < 1 | CC(=O)NCc1c(C2CCCNC2)cc(-c2c(O)cccc2OCC2CC2)nc1N (stereo not drawn) [Example 23-1, N-{[2-amino-6-[2-(cyclopropylmethoxy)-6-hydroxyphenyl]-4-(3-piperidinyl)-3-pyridinyl]methyl}acetamide hydrochoride]
26 | < 1 | CCOC(=O)NCc1c(C2CCCNC2)cc(-c2c(O)cccc2OCC2CC2)nc1N (stereo not drawn) [Example 23-2, ethyl [2-amino-6-[2-(cyclopropylmethoxy)-6-hydroxyphenyl]-4-(3-piperidinyl)-3-pyridinyl]methylcarbamate hydrochloride]
27 | < 1 | Nc1nc(-c2c(O)cccc2OCC2CC2)cc(C2CCCNC2)c1CNC(=O)NC1CCCCC1 (stereo not drawn) [Example 23-3, N-{[2-amino-6-[2-(cyclopropylmethoxy)-6-hydroxyphenyl]-4-(3-piperidinyl)-3-pyridinyl]methyl}-N′-cyclohexylurea hydrochloride]
28 | < 1 | CC(=O)N1Cc2c(C3CCCNC3)cc(-c3c(O)cccc3OCC3CC3)nc2NC1=O (stereo not drawn) [Example 24-1, 3-acetyl-7-[2-(cyclopropylmethoxy)-6-hydroxyphenyl]-5-(3-piperidinyl)-3,4-dihydropyrido[2,3-d]pyrimidin-2(1H)-one hydrochloride]
29 | < 1 | Oc1cccc(OCC2CC2)c1-c1cc(C2CCCNC2)c2c(n1)NCCC2 (stereo not drawn) [Example 28-01, 3-(cyclopropylmethoxy)-2-[4-(3-piperidinyl)-5,6,7,8-tetrahydro-1,8-naphthyridin-2-yl]phenol]
30 | < 1 | Nc1cc2c(C3CCCNC3)cc(-c3c(O)cccc3OCC3CC3)nc2[nH]c1=O (stereo not drawn) [Example 29-01, 3-amino-7-[2-(cyclopropylmethoxy)-6-hydroxyphenyl]-5-(3-piperidinyl)-1,8-naphthyridin-2(1H)-one hydrochloride]
31 | < 1 | CC(=O)Nc1cc2c(C3CCCNC3)cc(-c3c(O)cccc3OCC3CC3)nc2[nH]c1=O (stereo not drawn) [Example 29-3, N-[7-[2-(cyclopropylmethoxy)-6-hydroxyphenyl]-2-oxo-5-(3-piperidinyl)-1,2-dihydro-1,8-naphthyridin-3-yl]acetamide hydrochloride]
32 | < 1 | CCCNC(=O)c1cc2c(C3CCCNC3)cc(-c3c(O)cccc3OCC3CC3)nc2[nH]c1=O (stereo not drawn) [Example 31-1, 7-[2-(cyclopropylmethoxy)-6-hydroxyphenyl]-2-oxo-5-(3-pipedinyl)-N-propyl-1,2-dihydro-1,8-naphthyridine-3-carboxamide]
33 | < 1 | N#Cc1c(NC2CCCNC2)cc(-c2ccccc2O)nc1N (stereo not drawn) [Example 34-4, 2-amino-6-(2-hydroxyphenyl)-4-(3-piperidinylamino)nicotinonitrile hydrochloride]
